Each structure is given as a SMILES string.

The target of one assay is T1, His-tagged GST (Schistosoma japonicum, UniProt P08515).
T1 construct: purchased Millipore #12-523
Description: HTRF counter-screen with His-GST. Particulars: 100 nM His-GST. As for the experimental part: Two different HTRF counter-screens were used to identify false positive hits. The two interacting proteins GST-IQGAP1-C and His-Cdc42-Q61L were replaced with His-tagged GST or Cdc42-Q61L containing GST at the N-terminus and His at the C-terminus (GST-Cdc42-Q61L-His).
The second counter-screen was performed with 100 nM His-tagged GST following the protocol described above.
Supplementary Table S2: Counter-screening HTRF protocol.
Step Parameter Value Description
1a Protein 4 µL 100 nM His-GST (final concentration), diluted in
1b Controls 4 µL Column 2: GST-IQGAP1-C protein only [1.5nM] final
Column 3: pre-mixed proteins (regular assay
2 Compounds 23 nL Selected compounds were pin-transferred from DMSO
HTRF α-His-XL (5 ng/µL, 3X working concentration) +
3 antibodies 2 µL α-GST-K (0.7 ng/µL 3X working concentration),
pre-mix mixed in binding buffer
4 Time 3 Incubation (ambient temperature)
5 Reagent 1 µL 2.8 M KF (7x)
6 Detector HTRF Envision plate reader (excitation: 340 nm, emission: […]
On the technique in general: TR-FRET usually uses a lanthanide donor and a delayed reading to cut background.

For assay [1], the target named is T2, GST-IQGAP1-C / His-Cdc42-Q61L (Homo sapiens, UniProt P46940).
T2 construct: the C-terminal half of IQGAP1 (comprising amino acids 864–1657) containing a GST-tag; made in house; host or cells: Escherichia coli (BL-21 for GST-IQGAP1-C)
T2 sequence (P46940 864-1657): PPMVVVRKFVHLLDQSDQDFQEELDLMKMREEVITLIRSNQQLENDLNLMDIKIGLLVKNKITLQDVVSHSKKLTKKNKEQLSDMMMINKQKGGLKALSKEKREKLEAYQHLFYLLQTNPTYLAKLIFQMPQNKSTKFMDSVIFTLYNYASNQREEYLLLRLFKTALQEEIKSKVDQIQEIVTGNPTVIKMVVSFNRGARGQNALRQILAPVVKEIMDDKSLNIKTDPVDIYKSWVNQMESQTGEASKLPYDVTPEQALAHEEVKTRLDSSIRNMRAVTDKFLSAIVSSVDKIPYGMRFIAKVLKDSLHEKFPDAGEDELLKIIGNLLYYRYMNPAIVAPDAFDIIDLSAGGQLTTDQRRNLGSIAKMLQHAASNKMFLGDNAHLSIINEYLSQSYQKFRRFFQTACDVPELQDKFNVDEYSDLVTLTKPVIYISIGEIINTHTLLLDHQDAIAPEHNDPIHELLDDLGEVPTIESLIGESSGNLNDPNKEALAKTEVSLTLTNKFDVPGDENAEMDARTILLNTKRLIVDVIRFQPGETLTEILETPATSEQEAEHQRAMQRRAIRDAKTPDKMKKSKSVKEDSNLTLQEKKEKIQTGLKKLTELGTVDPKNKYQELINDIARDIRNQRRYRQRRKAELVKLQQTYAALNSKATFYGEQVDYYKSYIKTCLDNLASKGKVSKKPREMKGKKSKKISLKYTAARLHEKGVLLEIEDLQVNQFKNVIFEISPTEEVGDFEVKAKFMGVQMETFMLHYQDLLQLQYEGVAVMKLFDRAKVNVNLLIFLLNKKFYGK
Description: HTRF IQGAP1-Cdc42 binding assay (validation / confirmatory). Particulars: 50 nM His-Cdc42-Q61L, 1.5 nM GST-IQGAP1-C. As for the experimental part: Recombinant His-Cdc42-Q61L, GST-IQGAP1-C in combination with acceptor XL665 conjugated anti-His antibody (Anti-His-XL665) and donor Eu-cryptate conjugated anti-GST antibody (anti-GST-cryptate) were used for the HTRF assay to perform a high throughput screening of compound libraries in 1536-well white solid bottom medium-binding plates (Greiner Bio-One).
For the assay, His-Cdc42-Q61L and GST-IQGAP1-C proteins were diluted and pre-mixed in the binding buffer (50 mM Tris, pH 7.5, 150 mM NaCl and 0.01% Triton-X100) to final assay concentrations of 50 nM His-Cdc42-Q61L and 1.5 nM GST-IQGAP1-C. As control, 1.5 nM GST-IQGAP1-C in the absence of His-Cdc42-Q61L was used to gauge the maximal potential inhibition (IC100). Anti-His-XL665 and anti-GST-cryptate antibodies were prepared as threefold concentrated working mixture in binding buffer just prior to dispensing, with final assay concentrations of 5 ng/μL and 0.7 ng/µL, respectively. Pre-mixed proteins (4 µL/well) were dispensed to assay plates with a BioRAPTR FRD™ dispenser. […] The signal was detected immediately with an Envision plate reader (Perkin Elmer) using the HTRF settings (excitation at 340 nm, dual emission at 665 nm and 620 nm). […] The data were calculated as the ratio 665/620 × 10^4 to normalize for any effects in the donor channel. […]

T1 sequence (P08515 whole entry): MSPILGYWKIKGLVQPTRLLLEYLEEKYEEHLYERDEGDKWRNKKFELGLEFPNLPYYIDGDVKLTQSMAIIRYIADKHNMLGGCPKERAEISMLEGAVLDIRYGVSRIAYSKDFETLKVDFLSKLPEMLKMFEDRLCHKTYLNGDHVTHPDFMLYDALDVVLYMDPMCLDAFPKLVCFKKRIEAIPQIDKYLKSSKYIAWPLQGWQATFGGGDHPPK

As for `Cc1cccc(NC(=O)c2c(NC(=O)C(F)(F)F)sc3c2CCCCC3)c1` [NCGC00098561], on His-tagged GST, the “activity in His-GST counter-screen” value is listed as “not active”. Further, in assay [1], the concentration for a half-maximal effect (EC50) came to 7.94 µM. In assay [1] (3 h, read-out: efficacy, HTRF validation assay), the Emax came to 84%.

As to `CCN(CC)CCn1c2ccccc2c2nc3ccc([N+](=O)[O-])cc3cc21` [MLS000332963], the “activity in His-GST counter-screen” value at His-tagged GST is “inactive”.

One may read the EC50 as the midpoint of the concentration-response curve.
